Article PMC7873226, “Molecular mechanism and structural basis of small-molecule modulation of the gating of acid-sensing ion channel 1” (Communications Biology, 2021)
“And” between values parts separate entries of the source, which are not always exact repeats. Equal values may be shown once. Read-outs that look alike come from different tables or passages of the source.

Assays:
Format in all cases: cell-based
rat ASIC1a [1] = target: T1, rat ASIC1a (Rattus norvegicus, UniProt P55926); assay: pH dependence of steady-state desensitization (whole-cell patch clamp)
T1 construct: expressed in transfected cells
T1 sequence (P55926 1-526): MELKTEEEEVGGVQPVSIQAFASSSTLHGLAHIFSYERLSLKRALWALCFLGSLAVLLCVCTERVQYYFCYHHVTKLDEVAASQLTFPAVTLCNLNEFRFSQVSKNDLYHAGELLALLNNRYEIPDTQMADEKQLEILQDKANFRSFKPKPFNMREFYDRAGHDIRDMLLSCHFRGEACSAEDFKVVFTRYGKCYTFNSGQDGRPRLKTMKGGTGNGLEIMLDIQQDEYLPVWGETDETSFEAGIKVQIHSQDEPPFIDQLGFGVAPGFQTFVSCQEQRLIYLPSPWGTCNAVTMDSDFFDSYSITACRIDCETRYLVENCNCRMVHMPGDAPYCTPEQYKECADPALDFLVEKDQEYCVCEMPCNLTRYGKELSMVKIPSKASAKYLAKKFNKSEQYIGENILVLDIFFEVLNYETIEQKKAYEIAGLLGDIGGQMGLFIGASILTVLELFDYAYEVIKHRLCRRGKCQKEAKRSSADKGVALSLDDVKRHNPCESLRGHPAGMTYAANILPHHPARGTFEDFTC
Procedure: (§1) Chinese Hamster Ovary (CHO) cells stably expressing rat ASIC1a were cultured in Ham’s F12, supplemented with 10% FBS, 1% penicillin–streptomycin and 500 µg/mL G418 and incubated at 37 °C with 5% CO2. Transient transfections of rASIC1a and cASIC1 wild-type or mutant channels in CHO cells were performed with Lipofectamine 3000 (Thermo Fisher Scientific) according to the manufacturer’s recommendations. The green fluorescent protein (GFP) cDNA (at 1/10 the amount of channel cDNA) was co-transfected with channel cDNA to aid the identification of transfected cells under the microscope in patch clamp experiments. All cDNAs were sequence verified.
(§2) Cells were freshly dissociated with CellStripper (Corning) and dispersed in a chamber on the stage of an inverted microscope. Upon formation of the whole-cell conformation, the cell was lifted from the bottom of the chamber and placed at the tip of a tubing perfusing an extracellular solution containing (in mM): 149 NaCl, 2 CaCl2, 4 KCl, 1 MgCl2, 5 glucose, 10 HEPES, pH 7.4, 310 mOsm/L. Extracellular solutions at more basic or acidic pHs were made by titrating the above pH 7.4 solution with NaOH or HCl (5 mM MES was added to solutions at pH 6.0 and lower). Pipette electrodes were filled with an intracellular solution containing (in mM): 135 KCl, 4 MgATP, 0.3 Na2GTP, 10 EGTA, and 20 HEPES, pH 7.2, 290 mOsm/L.
(§3) All recordings were performed at room temperature using an Axopatch 200B amplifier and pClamp 11 software (Molecular Devices). Currents were measured by whole-cell patch clamp, digitized at 10 kHz and lowpass filtered at 2 kHz. Series resistance was 75% compensated. Responses were elicited by rapid perfusion of acidic solutions using the SF-77B Fast-Step Perfusion device (Warner Instruments) for 40 ms once every 30 s (unless indicated otherwise) and recorded till steady state was reached. The holding potential was 0 mV unless indicated otherwise.
(§4) Baseline values (i.e., current amplitudes at the conditioning pH) were subtracted to obtain responses evoked by the test pH. Responses were normalized for each cell before averaging (see figure legends for more detail on normalization for each type of experiment). Concentration–response data were fitted to a logistic function of the form: R = (A1–A2)/(1 + (C/C0)^h)+A2, where R is the normalized response, C is either pH or compound concentration, C0 is the pH/concentration at which half-maximal response occurs (pH50 or IC50), h is the Hill coefficient, and A1 and A2 are constants. Kinetic parameters were obtained by fitting the data with either a single or double exponential function. Fitted data are shown as solid, dashed, or dotted curves.

rat ASIC1a [2] = target: T1, rat ASIC1a; assay: Whole-cell patch clamp: inhibition of acid-induced current in CHO cells stably expressing rat ASIC1a
Procedure: as §1, §2, §3, §4

rat ASIC1a [3] = target: T1, rat ASIC1a; assay: Kinetics of closed-state (pH 7.1-induced) desensitization and recovery; conditions: 100 nM
Procedure: as §1, §2, §3, §4

rat ASIC1a [4] = target: T1, rat ASIC1a; assay: pH dependence of channel activation (whole-cell patch clamp); conditions: holding pH 8.2
Procedure: as §1, §2, §3, §4

inhibition at 0.01 µM (rat ASIC1a [2]; CHO, pH 5, pH5.0, 10 nM, read-out: current inhibition, mean (source data Fig. 1e)): 8%
inhibition at 0.03 µM (rat ASIC1a [2]; CHO, pH 5, pH5.0, 30 nM, read-out: current inhibition, mean (source data Fig. 1e)): 15.3%
inhibition at 0.1 µM (rat ASIC1a [2]; CHO, pH 5, pH5.0, 100 nM, read-out: current inhibition, mean (source data Fig. 1e)): 20.5%
inhibition at 0.3 µM (rat ASIC1a [2]; CHO, pH 5, pH5.0, 300 nM, read-out: current inhibition, mean (source data Fig. 1e)): 25.2%
inhibition at 1 µM (rat ASIC1a [2]; CHO, pH 5, pH5.0, 1000 nM, read-out: current inhibition, mean (source data Fig. 1e)): 28.4%
inhibition at 0.01 µM (rat ASIC1a [2]; CHO, pH 6, pH6.0, 10 nM, read-out: current inhibition, mean (source data Fig. 1e)): 17.9%
inhibition at 0.03 µM (rat ASIC1a [2]; CHO, pH 6, pH6.0, 30 nM, read-out: current inhibition, mean (source data Fig. 1e)): 38.3%
inhibition at 0.1 µM (rat ASIC1a [2]; CHO, pH 6, pH6.0, 100 nM, read-out: current inhibition, mean (source data Fig. 1e)): 61.3%
inhibition at 0.3 µM (rat ASIC1a [2]; CHO, pH 6, pH6.0, 300 nM, read-out: current inhibition, mean (source data Fig. 1e)): 68.9%
inhibition at 1 µM (rat ASIC1a [2]; CHO, pH 6, pH6.0, 1000 nM, read-out: current inhibition, mean (source data Fig. 1e)): 71.7%
inhibition at 3 µM (rat ASIC1a [2]; CHO, pH 6, pH6.0, 3000 nM, read-out: current inhibition, mean (source data Fig. 1e)): 79.2%
inhibition at 0.01 µM (rat ASIC1a [2]; CHO, pH 6.8, 10 nM, 0 mV, read-out: inhibition of pH 6.8-induced current): 75.6 ± 6.9%
inhibition at 0.01 µM (rat ASIC1a [2]; CHO, pH 6.8, 10 nM, −80 mV, read-out: inhibition of pH 6.8-induced current): 78.2 ± 5%
inhibition at 0.001 µM (rat ASIC1a [2]; CHO, pH 6.8, pH6.8, 1 nM, read-out: current inhibition, mean (source data Fig. 1e)): 15.3%
inhibition at 0.003 µM (rat ASIC1a [2]; CHO, pH 6.8, pH6.8, 3 nM, read-out: current inhibition, mean (source data Fig. 1e)): 33.9%
inhibition at 0.01 µM (rat ASIC1a [2]; CHO, pH 6.8, pH6.8, 10 nM, read-out: current inhibition, mean (source data Fig. 1e)): 62.8%
inhibition at 0.03 µM (rat ASIC1a [2]; CHO, pH 6.8, pH6.8, 30 nM, read-out: current inhibition, mean (source data Fig. 1e)): 89.8%
inhibition at 0.1 µM (rat ASIC1a [2]; CHO, pH 6.8, pH6.8, 100 nM, read-out: current inhibition, mean (source data Fig. 1e)): 97.6%
inhibition at 0.003 µM (rat ASIC1a [2]; CHO, pH 7.1, pH7.1, 3 nM, read-out: current inhibition, mean (source data Fig. 1e)): 42.7%
inhibition at 0.01 µM (rat ASIC1a [2]; CHO, pH 7.1, pH7.1, 10 nM, read-out: current inhibition, mean (source data Fig. 1e)): 78.1%
inhibition at 0.03 µM (rat ASIC1a [2]; CHO, pH 7.1, pH7.1, 30 nM, read-out: current inhibition, mean (source data Fig. 1e)): 96.5%
inhibition at 0.1 µM (rat ASIC1a [2]; CHO, pH 7.1, pH7.1, 100 nM, read-out: current inhibition, mean (source data Fig. 1e)): 99.8%
IC50 (rat ASIC1a [2]; test pH 5.0, holding pH 8.2): 34.4 ± 7.6 nM
max %inhibition (rat ASIC1a [2]; test pH 5.0, holding pH 8.2): 30.4 ± 1.8%
max %inhibition (rat ASIC1a [2]; test pH 6.0, holding pH 8.2): 76.5 ± 2.2%
IC50 (rat ASIC1a [2]; test pH 6.0, holding pH 8.2, WT): 28.9 ± 3.6 nM
IC50 (rat ASIC1a [2]; test pH 6.8, holding pH 8.2): 5.5 ± 0.4 nM
max %inhibition (rat ASIC1a [2]; test pH 6.8, holding pH 8.2): 100%
IC50 (rat ASIC1a [2]; test pH 7.1, holding pH 8.2): 3.8 ± 0.2 nM
max %inhibition (rat ASIC1a [2]; test pH 7.1, holding pH 8.2): 100%
max %response of channel activation (rat ASIC1a [4]; 10 nM): 95.3 ± 1.6%
pH50 of channel activation (rat ASIC1a [4]; 10 nM): 6.02 ± 0.03
max %response of channel activation (rat ASIC1a [4]; 30 nM): 88.1 ± 1.0%
pH50 of channel activation (rat ASIC1a [4]; 30 nM): 5.87 ± 0.02
max %response of channel activation (rat ASIC1a [4]; 100 nM): 82.6 ± 0.3%
pH50 of channel activation (rat ASIC1a [4]; 100 nM): 5.73 ± 0.00
max %response of channel activation (rat ASIC1a [4]; 300 nM): 84.1 ± 0.5%
pH50 of channel activation (rat ASIC1a [4]; 300 nM): 5.70 ± 0.01
max %response of channel activation (rat ASIC1a [4]; 1000 nM): 87.4 ± 0.5%
pH50 of channel activation (rat ASIC1a [4]; 1000 nM): 5.68 ± 0.01
max %response of channel activation (rat ASIC1a [4]; 3000 nM): 82.9 ± 0.5%
pH50 of channel activation (rat ASIC1a [4]; 3000 nM): 5.70 ± 0.01
SMILES: Cc1cc(N2CC(Oc3cc(F)c4c(N)n[nH]c4c3)C2)c(F)cn1 [JNJ-67869386]
pH50 of steady-state desensitization (rat ASIC1a [1]; 0.1 µM): 7.30 ± 0.03
pH50 of steady-state desensitization (rat ASIC1a [1]; 1 µM): 7.27 ± 0.01
pH50 of steady-state desensitization (rat ASIC1a [1]; 10 µM): 7.26 ± 0.01
steady-state desensitization, current % of conditioning pH 8.2, mean (rat ASIC1a [1]; conditioning pH 6.8, 100 nM): 0.13%
steady-state desensitization, current % of conditioning pH 8.2, mean (rat ASIC1a [1]; conditioning pH 6.8, 1 uM): 0.0205%
steady-state desensitization, current % of conditioning pH 8.2, mean (rat ASIC1a [1]; conditioning pH 6.8, 10 uM): -0.0952%
steady-state desensitization, current % of conditioning pH 8.2, mean (rat ASIC1a [1]; conditioning pH 7.1, 100 nM): 1.6%
steady-state desensitization, current % of conditioning pH 8.2, mean (rat ASIC1a [1]; conditioning pH 7.1, 1 uM): 9.0%
steady-state desensitization, current % of conditioning pH 8.2, mean (rat ASIC1a [1]; conditioning pH 7.1, 10 uM): 10.8%
steady-state desensitization, current % of conditioning pH 8.2, mean (rat ASIC1a [1]; conditioning pH 7.4, 100 nM): 88.8%
steady-state desensitization, current % of conditioning pH 8.2, mean (rat ASIC1a [1]; conditioning pH 7.4, 1 uM): 84.6%
steady-state desensitization, current % of conditioning pH 8.2, mean (rat ASIC1a [1]; conditioning pH 7.4, 10 uM): 85.5%
steady-state desensitization, current % of conditioning pH 8.2, mean (rat ASIC1a [1]; conditioning pH 7.8, 100 nM): 98.6%
steady-state desensitization, current % of conditioning pH 8.2, mean (rat ASIC1a [1]; conditioning pH 7.8, 1 uM): 95.5%
steady-state desensitization, current % of conditioning pH 8.2, mean (rat ASIC1a [1]; conditioning pH 7.8, 10 uM): 95.9%
steady-state desensitization, current % of conditioning pH 8.2, mean (rat ASIC1a [1]; conditioning pH 8.2, 100 nM): 100%
steady-state desensitization, current % of conditioning pH 8.2, mean (rat ASIC1a [1]; conditioning pH 8.2, 1 uM): 100%
steady-state desensitization, current % of conditioning pH 8.2, mean (rat ASIC1a [1]; conditioning pH 8.2, 10 uM): 100%
current remaining during pH 7.1-induced desensitization, normalized to pre-pH 7.1 pH 6.0 peak, mean (rat ASIC1a [3]; 0.8 s in pH 7.1 (source data Fig. 3c)): 75.8
current remaining during pH 7.1-induced desensitization, normalized to pre-pH 7.1 pH 6.0 peak, mean (rat ASIC1a [3]; 1.6 s in pH 7.1): 70.1
current remaining during pH 7.1-induced desensitization, normalized to pre-pH 7.1 pH 6.0 peak, mean (rat ASIC1a [3]; 3.2 s in pH 7.1): 61.0
current remaining during pH 7.1-induced desensitization, normalized to pre-pH 7.1 pH 6.0 peak, mean (rat ASIC1a [3]; 6.4 s in pH 7.1): 50.5
current remaining during pH 7.1-induced desensitization, normalized to pre-pH 7.1 pH 6.0 peak, mean (rat ASIC1a [3]; 12.8 s in pH 7.1): 36.9
current remaining during pH 7.1-induced desensitization, normalized to pre-pH 7.1 pH 6.0 peak, mean (rat ASIC1a [3]; 25.6 s in pH 7.1): 20.0
current remaining during pH 7.1-induced desensitization, normalized to pre-pH 7.1 pH 6.0 peak, mean (rat ASIC1a [3]; 51.2 s in pH 7.1): 8.7
current remaining during pH 7.1-induced desensitization, normalized to pre-pH 7.1 pH 6.0 peak, mean (rat ASIC1a [3]; 102.4 s in pH 7.1): 4.9
current remaining during pH 7.1-induced desensitization, normalized to pre-pH 7.1 pH 6.0 peak, mean (rat ASIC1a [3]; 204.8 s in pH 7.1): 3.1
time constant of development of pH 7.1-induced desensitization (rat ASIC1a [3]; single exponential, pH 6.0 test pulses): 15.1 s and 15.1 ± 1.3 s
